In article PMC7804859, “A metabolically stable apelin-17 analog decreases AVP-induced antidiuresis and improves hyponatremia” (Nature Communications, 2021):
“And” between values parts separate entries of the source, which are not always exact repeats. Equal values may be shown once. Read-outs that look alike come from different tables or passages of the source. Ends that are not written are not given here.

How the values were obtained:
[1] = biological target: T1, human V2-R (Homo sapiens, UniProt P30518); test: cAMP production in HEK-293 T cells expressing the human V2-R (HTRF); type: cell-based; details: FSK 5.10-6M
T1 construct: host or cells: HEK-293T cells, transient transfection
T1 sequence (P30518 whole entry): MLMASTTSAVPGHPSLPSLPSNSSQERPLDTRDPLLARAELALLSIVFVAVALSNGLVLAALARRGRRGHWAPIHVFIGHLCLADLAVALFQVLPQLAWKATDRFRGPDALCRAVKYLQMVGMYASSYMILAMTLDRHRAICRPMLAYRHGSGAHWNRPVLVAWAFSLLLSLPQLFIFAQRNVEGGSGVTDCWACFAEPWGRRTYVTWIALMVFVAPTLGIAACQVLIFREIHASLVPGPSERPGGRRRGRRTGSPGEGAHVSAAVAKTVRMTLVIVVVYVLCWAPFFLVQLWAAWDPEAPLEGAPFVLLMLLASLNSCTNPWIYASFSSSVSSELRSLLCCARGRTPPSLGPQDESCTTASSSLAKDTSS
Protocol: (§1) 152 Supplementary Methods
(§2) 154 We quantified cAMP production with the cAMP dynamic 2 assay kit (Cisbio Bioassays,
(§3) 155 Codolet, France), which is based on homogeneous time-resolved fluorescence (HTRF)
156 technology, as previously described 1. […]
For cells expressing the V2-R, HEK-
160 293T cells were transiently transfected with the human V2-R (cDNA Resource Center), after
161 48h, 4000 cells/well were added to white 384-well optiplates and stimulated either with 5
(§4) Cells were then lysed, and
(§5) 165 cAMP levels were determined in accordance with the kit manufacturer’s instructions.
(§6) 166 Stimulation was performed in stimulation buffer-IBMX (SBI) (Hank’s balanced salt solution
(§7) 167 (HBSS-Life Technology), 5 mmol/l Hepes, 0.1% BSA stabilizer (Perkin Elmer), 1 mmol/l
(§8) 168 isobutylmethylxanthine (IBMX, Sigma Aldrich, pH 7.4)). […]

[2] = biological target: T2, rat apelin-R-EGFP (Rattus norvegicus, UniProt Q9JHG3); test: Inhibition of forskolin-induced cAMP production in CHO cells stably expressing rat apelin-R-EGFP (HTRF); type: cell-based; details: 5 µmol/l forskolin, 30 min 20 °C
T2 construct: expressed in transfected cells
T2 sequence (Q9JHG3 1-377): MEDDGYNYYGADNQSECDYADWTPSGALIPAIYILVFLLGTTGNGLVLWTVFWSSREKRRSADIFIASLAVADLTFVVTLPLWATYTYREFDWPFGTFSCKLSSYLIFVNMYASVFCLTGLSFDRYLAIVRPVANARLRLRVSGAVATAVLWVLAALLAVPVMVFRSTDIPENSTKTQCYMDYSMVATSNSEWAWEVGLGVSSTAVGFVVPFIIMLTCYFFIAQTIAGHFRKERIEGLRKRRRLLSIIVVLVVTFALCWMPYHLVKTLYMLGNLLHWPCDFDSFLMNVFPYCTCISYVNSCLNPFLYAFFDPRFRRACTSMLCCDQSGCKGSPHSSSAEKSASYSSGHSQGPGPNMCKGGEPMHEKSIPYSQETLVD
Protocol: as §1, §2, §3
156 technology, as previously described 1. For cells expressing the Apelin-R, 2000 CHO cells/well
157 stably expressing rat apelinR-EGFP (clone B70) were added to the 384-well plate and
158 stimulated with 5 µmol/l forskolin (FSK) and various concentrations (0.01 pmol/l to 100 […]
as §4, §5, §6, §7, §8

[3] = in vivo; details: rat, in vivo, iv
Protocol: (§9) 187 Apelin radioimmunoassay
(§10) 188 Plasma samples (0.5 ml) were acidified with 0.175 ml of 3 mol/l HCl and stored at -80°C
(§11) 189 until use for apelin RIA. Before thawing the sample on ice, 0.05% BSA was added, and the
(§12) 190 samples were centrifuged at 20000 x g at 4°C for 10 min. The supernatants were collected and
(§13) 191 the pH was adjusted to 6.5 with 10 mol/l NaOH and 2 mol/l Tris-HCl buffer (pH 7.4). Apelin
(§14) 192 was extracted from plasma by mixing the supernatant with 0.3 ml of 0.1% BSA in H2O and 1
(§15) 193 ml of 1% trifluoroacetic acid (TFA) - 0.1% BSA, and running the mixture on a Sep-Pak C18
(§16) 194 cartridge (Waters) previously washed with 2 ml 100% acetonitrile and equilibrated with 5 ml
(§17) 195 1% TFA - 0.1% BSA. The columns then were washed with 3 ml 1% TFA - 0.1% BSA and
(§18) 196 apelin was eluted with 1.5 ml 100% acetonitrile. […]
(§19) 208 Plasma or brain apelin levels w ere deter mined by RIA. Samples (0.1ml) w ere mixed with 125I-
(§20) 211 dilution: 1/4500) to give a total volume of 0.2 ml and were incubated at 4°C overnight. We
(§21) 212 used this radioligand instead of [Glp65, Nle75, Tyr77] [125I]-apelin13 since the substitution of
(§22) 214 derivatives as described previously by 3,4.
(§23) 215 We then added 0.5 ml of Amerlex (Amersham RPN 510), and the resulting mixture was
(§24) 216 incubated for 10 min at room temperature. The tubes were centrifuged at 2600 x g at 4°C for
217 20 min. The supernatant was removed and the radioactivity of the precipitates was measured.
218 We assessed the cross-reactivity of the apelin antiserum with various N- and C-terminally
232 according to the following equation: [plasma apelin] tx = [plasma apelin] t0 * e(-kt) , where k is
233 the elimination rate constant. […]

[4] = in vivo; details: mouse, in vivo, iv
Protocol: as §9, §10, §11, §12, §13, §14, §15, §16, §17, §18, §19, §20, §21, §22, §23, §24
217 20 min. The supernatant was removed and the radioactivity of the precipitates was measured. […]

[5] = biological target: T3, rat apelin-R (Rattus norvegicus, UniProt Q9JHG3); test: Radioligand binding ([125I]-pE13F) to membranes from CHO cells stably expressing rat apelin-R-EGFP; details: 1 h 20 °C, pH 7.4, new batch of LIT01-196
T3 construct: expressed in transfected cells; membrane preparation
T3 sequence (Q9JHG3 1-377): T2 sequence (Q9JHG3 1-377)
Protocol: Membranes from CHO cells stably expressing rat apelin-R-EGFP were prepared as previously described[23]. […] The reaction was stopped by adding ice-cold binding buffer and filtering through Whatman GF/C filters. The filters were washed and radioactivity was counted with a Wizard 1470 Wallac gamma counter (PerkinElmer, Turku, Finland).

[6] = tested on: control rats; test: Plasma AVP and apelin-IR levels in control rats (RIA); type: in vivo, rat; design: Apelin / AVP: unit not given here
Protocol: as §9
(§25) 189 until use for apelin RIA.
(§26) The supernatants were collected and
(§27) The samples were dried and dissolved in
(§28) 201 centrifuged (17000 x g, 4°C, 20 min). The supernatant (4 ml) was collected, and mixed with
(§29) The columns were then treated as described in
(§30) Samples (0.1ml) w ere mixed with 125I-
as §21, §22
(§31) 216 incubated for 10 min at room temperature.
(§32) This antiserum identified the apelin present in the
(§33) Most of the apelin in human plasma was
(§34) 252 TechMedILL platfor m (Illkirch) reviewed and approved by the agriculture ministry regulating
(§35) 256 Male Sprague-Dawley rats were killed by decapitation, and trunk blood was collected on ice
(§36) 257 (into 50 µl of 0.3M EDTA (pH 7.4) per 1 ml of blood). Samples were centrifuged (2,600 x g,
(§37) 258 4°C, 20 min), and the resulting plasma was split into 500 µl aliquots, to which we added 168
(§38) 259 µl of 3N HCl before storage at -80°C. The AVP RIA was performed as previously described
(§39) 260 5, using a specific AVP-[Arg8] antibody (final dilution, 1/4.5) and [125I]-(Tyr2Arg8)-AVP
(§40) 261 (2200 Ci/mmol, Perkin-Elmer, Billerica, MA; 15000 dpm) as a tracer. […]

[7] = tested on: patients; details: cited from earlier work
[8] = tested on: hyponatremic rats; test: Plasma AVP and apelin-IR levels in hyponatremic rats (RIA); type: in vivo, rat
Protocol: as §9, §25, §26, §27, §28, §29, §30, §21, §22, §31, §32, §33, §34, §35, §36, §37, §38, §39, §40

[9] = tested on: hyponatremic rats (AVP 30 ng/h); test: Effects of LIT01-196 and tolvaptan in rat model of AVP-induced hyponatremia; type: in vivo
Protocol: Meloxicam was administered postoperatively for analgesia. Animals were then individually housed in metabolic cages (Techniplast), and given a semi-liquid diet consisting of 25 ml Gel-Diet Breeding-10 (SAFE, Augy, France) mixed with 25 ml tap water per day, with water available ad libitum. Animal weight, water, and food consumption were measured daily. Urine was collected daily, urinary electrolytes (Na^+, K^+, Cl^−) were determined with an ISE 3000 (Caretium Medical Instruments, Shenzhen, China) and urinary osmolality was measured with a Cryobasic 1 osmometer (Astori Tecnica, Poncarale, Italy). Blood samples were collected on ice, before implantation of the osmotic minipump, and before drug administration, under isoflurane anesthesia, from the tail vein (4 µl of lithium heparinate (1600 IU/ml) for 400 µl of blood). The blood samples were immediately centrifuged (4 °C, 2600 × g, 20 min), and plasma electrolyte (Na^+, K^+, Cl^−) levels were quantified with an ISE 3000. On the last day of the experiment, blood was also collected on ice by intracardiac puncture. This blood sample was collected into lithium heparinate under isoflurane anesthesia; plasma electrolyte levels were determined as described above and the animals were immediately killed by carbon monoxide inhalation.

[10] = tested on: normonatremic Sprague-Dawley rats; test: Effects of s.c. administration on metabolic parameters in normonatremic rats; type: in vivo, rat
[11] = biological target: anti-K17F serum; test: Inhibition of [125I]-pE13F binding to anti-K17F serum (apelin RIA, cross-reactivity); design: species or system rabbit; details: read-out: IC50, recognition by antibody directed against K17F, antiserum 1/4500
Protocol: as §29, §30, §21, §22, §31, §32
Most of the apelin in human plasma was […]

[12] = tested on: anti-K17F serum; details: cited from earlier work; for cross-reactivity with the apelin antiserum: ref De Mota et al, PNAS, 2004
Protocol: The columns were then treated as described in 207 the paragraph above.

[13] = 900 nmol/kg SC (tolvaptan 0.4.SC [sic]), normonatremic rats, single animals

C=C[C@@]1(C)CC(=O)[C@]2(O)[C@@]3(C)[C@@H](O)CCC(C)(C)[C@@H]3[C@H](O)[C@H](OC(C)=O)[C@@]2(C)O1 [FSK]
cAMP production, Value (Fig 2B) ([1]; experiment 1): 139.382
cAMP production, Value (Fig 2B) ([1]; experiment 2): 85.1109
cAMP production, Value (Fig 2B) ([1]; experiment 3): 116.78
cAMP production, Value (Fig 2B) ([1]; experiment 4): 128.996

CSCC[C@H](NC(=O)[C@@H]1CCCN1C(=O)CNC(=O)[C@H](CCCCN)NC(=O)[C@H](Cc1cnc[nH]1)NC(=O)[C@H](CO)NC(=O)[C@H](CC(C)C)NC(=O)[C@H](CCCNC(=N)N)NC(=O)[C@@H]1CCCN1C(=O)[C@H](CCCNC(=N)N)NC(=O)[C@H](CCC(N)=O)NC(=O)[C@H](CCCNC(=N)N)NC(=O)[C@H](CCCNC(=N)N)NC(=O)[C@H](Cc1ccccc1)NC(=O)[C@@H](N)CCCCN)C(=O)N1CCC[C@H]1C(=O)N[C@@H](Cc1ccccc1)C(=O)O [K17F, reference compound]
IC50 [2]: 0.6 ± 0.2 nM
half-life [3]: 50 s
half-life [4]: 44 s
Ki [5]: 0.14 ± 0.02 nM

Cc1ccccc1C(=O)Nc1ccc(C(=O)N2CCCC(O)c3cc(Cl)ccc32)c(C)c1 (stereo not shown) [tolvaptan, reference compound]
plasma apelin-IR levels versus control rats ([6]; 3 h after 6700 nmol/kg s.c.): similar
plasma apelin/AVP ratio versus saline ([6]; 3 h after 6700 nmol/kg s.c.): similar
plasma AVP levels, higher than in animals receiving saline ([6]; 3 h after s.c., tolvaptan 6700 nmol/kg, LIT01-196 900 nmol/kg): 147%
AVP ([6]; plasma AVP, Tolvaptan 6700 nmol/kg SC, individual animals (Fig. S4F source data)): 46.8225 and 42.0318 and 57.2512 and 20.2981 and 21.5164 and 46.682
Apelin ([6]; plasma apelin-IR, Tolvaptan 6700 nmol/kg SC, individual animals (Fig. S4E source data)): 782.319 and 460.81 and 574.125 and 749.499 and 564.407 and 576.365
apelinAVPratio ([6]; plasma apelin/AVP ratio, Tolvaptan 6700 nmol/kg SC, individual animals (Fig. S4G source data)): 16.7082 and 10.9634 and 10.0282 and 36.9246 and 26.2315 and 12.3466
patients with overly rapid sodium correction ([7]; 7.5 mg per day, hyponatremia patients, baseline serum sodium <125 mmol/l): 23%
patients with ADPKD discontinuing treatment for aquaresis-related events [7]: 8%
plasma AVP and apelin levels versus AVP + saline ([8]; 6700 nmol/kg s.c., 3 h): similar
Plasma AVP ([8]; AVP 30 ng/h rats, individual animals (Fig. 6A source data)): 39.2062 and 41.6048 and 44.1878 and 29.3355 and 51.7522 and 30.996 and 44.9258 and 45.018
Plasma apelin ([8]; AVP 30 ng/h rats, individual animals (Fig. 6B source data)): 312 and 375 and 335 and 404 and 283 and 315 and 384 and 365
Apelin to AVP ratio ([8]; AVP 30 ng/h rats, individual animals (Fig. 6C source data)): 7.958 and 9.013 and 7.581 and 13.7717 and 5.468 and 10.1626 and 8.547 and 8.108
increase in urine output 24 h after s.c. administration ([9]; 900 nmol/kg s.c., rats receiving 30 ng/h AVP and liquid diet): 9.5 ± 2.9 ml/24 h/100 g
increase in urine output 24 h after s.c. administration ([9]; 6700 nmol/kg s.c., rats receiving 30 ng/h AVP): 27 ± 9.0 ml/24 h/100 g
Urine osmolality (3 hours) [10, 13]: 400 and 540 and 520 and 404 and 412
Urine osmolality (6 hours) [10, 13]: 484 and 656 and 532 and 492 and 496
Urine osmolality (24 hours) [10, 13]: 772 and 1396 and 1244 and 1552 and 1324 and 1300 and 1592 and 1040 and 1416 and 1184 and 2300 and 1048
increase in water intake ([10]; 900 nmol/kg s.c., 24 h): 37%
increase in water intake to food intake ratio ([10]; 900 nmol/kg s.c., 24 h): 24%
increase in 24-h urine output relative to saline ([10]; 900 nmol/kg s.c., normonatremic rats): 77%
decrease in urine osmolality ([10]; 900 nmol/kg s.c., normonatremic rats, 24 h): 40%
Sodium excretion fraction ([10]; LIT01-196 900 nmol/kg, tolvaptan 6700 nmol/kg s.c., 24 h): not changed
Water excretion fraction ([10]; Tolvaptan 6700 nmol/kg SC, individual animals (Fig. S4C source data)): 0.8154 and 1.026 and 2.311 and 0.5818 and 0.7955 and 0.7
Sodium excretion fraction ([10]; Tolvaptan 6700 nmol/kg SC, individual animals (Fig. S4D source data)): 0.6016 and 0.6502 and 0.5049 and 0.3349 and 0.4657 and 0.6432
Water to food ratio ([10]; normonatremic rats, 900 nmol/kg SC, individual animal values (source data Fig. 4L)): 1.532 and 1.653 and 1.89 and 1.641 and 1.608

Fluoro-K16P: not recognized by the antibody directed against K17F (KFRRQRPRLSHKGPMP; also: fluorescent label, site and dye not given here; UniProt Q9ULZ1 61-76, looked up, fragment) [reference compound]
IC50 [11]: > 1000 nM

K16P: K17F after removal of the phenylalanine residue at the extreme end of the C-terminus (KFRRQRPRLSHKGPMP; UniProt Q9ULZ1 61-76, looked up, fragment)
recognition by antibody directed against K17F [12]: does not recognize
cross-reactivity with the apelin antiserum ([12]; pE13F taken as 100%): < 0.3%

angiotensin II (DRVYIHPF; Angiotensin-2; UniProt P01019 25-32, looked up)
cross-reactivity with the apelin antiserum [12]: Negligible cross-reactivity

angiotensin III (RVYIHPF; Angiotensin-3; UniProt P01019 26-32, looked up)
cross-reactivity with the apelin antiserum [12]: Negligible cross-reactivity

apelin 36: molecular form of apelin identified in vivo (LVQPRGSRNGPGPWQGGRRKFRRQRPRLSHKGPMPF; Apelin-36; UniProt Q9ULZ1 42-77, looked up)
cross-reactivity with the apelin antiserum ([12]; pE13F taken as 100%): 100%

neuropeptide Y
cross-reactivity with the apelin antiserum [12]: Negligible cross-reactivity
